Here are results for eight compounds from patent publication US20250353891A1 (MEDIMMUNE LIMITED, priority 2022, published 2025).

In test [1] the target is human glucagon receptor (hGCGR) (Homo sapiens, UniProt P47871). Briefly: cAMP production (HTRF) in CHO cells expressing hGCGR. As to conditions: Table 7, peptides modified at position 20; cAMP in CHO hGCGR cells; geometric mean; read-out: hGluc-R EC50. The class given is cell-based. More on the design: expressed in transfected cells. The method, boiled down: (§1)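 Cells were resuspended in assay buffer at batch-optimized density, typically 1×10^5 cells/mL for hGLP-1R and 2×10^5 cells/mL for hGCGR. After 30 min incubation at room temperature with compound, cAMP was measured by two-step HTRF. EC50 values came from 4-parameter logistic fits of % Delta F.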

The target in test [2] is human GLP-1 receptor (hGLP-1R) (Homo sapiens, UniProt P43220). The test is described as follows: cAMP production (HTRF) in CHO cells expressing hGLP-1R. The conditions noted are these: for EC50: Table 7, peptides modified at position 20, cAMP in CHO hGLP-1R cells, geometric mean, read-out: hGLP-1R EC50; for % Relative Potency Ratio: Table 7, % GLP-1R activity relative to GLP-1 / % GlucR activity relative to glucagon. More on the design: expressed in transfected cells. The class given is cell-based. The method, boiled down: as §1
For orientation: cAMP levels reflect the balance of adenylyl cyclase and phosphodiesterase activity.

Starred links: 1 amine or outer side, 2 acyl side, 3 side chain; linkers in the order of their positions; H or OH if unused. Non-standard residues stand in square brackets, D forms with d. Residues, ends and D or L forms follow the SMILES beside them. Groups on a side chain read outwards from the residue. *: point of attachment. C20 diacid = O=C(O)CCCCCCCCCCCCCCCCCCC(=O)*; C18 diacid = O=C(O)CCCCCCCCCCCCCCCCC(=O)*; γGlu = O=C(O)[C@H](CCC(=O)[*:2])N[*:1]; αMeF = C[C@](N)(Cc1ccccc1)C(=O)O; AEEA = NCCOCCOCC(=O)O; Aib = CC(C)(N)C(=O)O

Chain of human GLP-1 receptor (hGLP-1R) (P43220 24-463): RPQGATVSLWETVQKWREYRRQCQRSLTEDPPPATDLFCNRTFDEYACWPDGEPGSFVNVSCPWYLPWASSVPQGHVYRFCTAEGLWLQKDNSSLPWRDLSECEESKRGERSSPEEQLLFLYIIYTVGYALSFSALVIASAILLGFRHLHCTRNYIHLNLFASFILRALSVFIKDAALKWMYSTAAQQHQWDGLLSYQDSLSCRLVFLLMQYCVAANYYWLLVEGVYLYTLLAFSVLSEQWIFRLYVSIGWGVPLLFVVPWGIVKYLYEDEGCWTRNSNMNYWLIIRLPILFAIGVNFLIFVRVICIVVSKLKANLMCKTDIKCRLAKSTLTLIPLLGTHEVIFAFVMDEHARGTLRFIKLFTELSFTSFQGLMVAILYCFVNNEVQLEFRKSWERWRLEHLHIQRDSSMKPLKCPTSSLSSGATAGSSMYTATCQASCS
Chain of human glucagon receptor (hGCGR) (P47871 26-477): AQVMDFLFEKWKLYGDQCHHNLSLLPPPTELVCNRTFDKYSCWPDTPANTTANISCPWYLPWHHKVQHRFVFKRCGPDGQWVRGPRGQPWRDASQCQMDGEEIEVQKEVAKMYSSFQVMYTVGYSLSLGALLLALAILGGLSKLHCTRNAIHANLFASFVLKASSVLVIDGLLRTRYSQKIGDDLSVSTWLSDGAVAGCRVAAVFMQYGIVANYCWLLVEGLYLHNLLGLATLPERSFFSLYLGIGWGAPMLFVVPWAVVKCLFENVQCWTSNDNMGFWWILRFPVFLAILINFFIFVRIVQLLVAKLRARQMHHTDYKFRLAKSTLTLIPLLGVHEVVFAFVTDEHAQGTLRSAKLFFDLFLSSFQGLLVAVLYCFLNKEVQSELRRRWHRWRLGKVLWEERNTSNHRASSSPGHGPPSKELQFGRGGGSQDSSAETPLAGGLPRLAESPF

Take `CC[C@H](C)[C@H](NC(=O)C(C)(C)NC(=O)[C@H](CCC(N)=O)NC(=O)[C@@H](NC(=O)[C@](C)(Cc1ccccc1)NC(=O)[C@H](CC(=O)O)NC(=O)[C@H](CCCCNC(=O)COCCOCCNC(=O)COCCOCCNC(=O)CCCCCCCCCCCCCCCCCCC(=O)O)NC(=O)[C@H](C)NC(=O)[C@H](C)NC(=O)[C@H](CCCNC(=N)N)NC(=O)[C@H](CO)NC(=O)[C@H](CC(=O)O)NC(=O)[C@H](CC(C)C)NC(=O)[C@](C)(Cc1ccccc1)NC(=O)[C@H](CCCCN)NC(=O)[C@H](CO)NC(=O)[C@@H](NC(=O)[C@H](CC(=O)O)NC(=O)[C@H](CO)NC(=O)[C@@H](NC(=O)[C@](C)(Cc1ccccc1)NC(=O)[C@H](CO)NC(=O)CNC(=O)[C@H](Cc1c[nH]cn1)NC(=O)C(C)(C)NC(=O)[C@@H](N)Cc1c[nH]cn1)[C@@H](C)O)C(C)C)C(C)C)C(=O)N[C@@H](C)C(=O)N[C@@H](CC(N)=O)C(=O)N[C@H](C(N)=O)[C@@H](C)O` [Peptide 277] (H-H[Aib]HGS[αMeF]TSDVSK[αMeF]LDSRAAK([AEEA-AEEA-C20 diacid])D[αMeF]VQ[Aib]IANT-NH2): the EC50 in test [1] was 0.0573 nM. In addition, in test [2], the EC50 was 0.0495 nM and the “% Relative Potency Ratio” value came out at 2.3.
As for `CC[C@H](C)[C@H](NC(=O)C(C)(C)NC(=O)[C@H](CCC(N)=O)NC(=O)[C@@H](NC(=O)[C@](C)(Cc1ccccc1)NC(=O)[C@H](CC(=O)O)NC(=O)[C@H](CCCCNC(=O)COCCOCCNC(=O)CCCCCCCCCCCCCCCCCCC(=O)O)NC(=O)[C@H](C)NC(=O)[C@H](C)NC(=O)[C@H](CCCNC(=N)N)NC(=O)[C@H](CO)NC(=O)[C@H](CC(=O)O)NC(=O)[C@H](CC(C)C)NC(=O)[C@](C)(Cc1ccccc1)NC(=O)[C@H](CCCCN)NC(=O)[C@H](CO)NC(=O)[C@@H](NC(=O)[C@H](CC(=O)O)NC(=O)[C@H](CO)NC(=O)[C@@H](NC(=O)[C@](C)(Cc1ccccc1)NC(=O)[C@H](CO)NC(=O)CNC(=O)[C@H](Cc1c[nH]cn1)NC(=O)C(C)(C)NC(=O)[C@@H](N)Cc1c[nH]cn1)[C@@H](C)O)C(C)C)C(C)C)C(=O)N[C@@H](C)C(=O)N[C@@H](CC(N)=O)C(=O)N[C@H](C(N)=O)[C@@H](C)O` [Peptide 278] (H-H[Aib]HGS[αMeF]TSDVSK[αMeF]LDSRAAK([AEEA-C20 diacid])D[αMeF]VQ[Aib]IANT-NH2), the half-maximal effective concentration (EC50) in test [1] turned out to be 0.0835 nM. Moreover, in test [2], the EC50 turned out to be 0.0789 nM and the “% Relative Potency Ratio” value turned out to be 2.1.
On to `CC[C@H](C)[C@H](NC(=O)C(C)(C)NC(=O)[C@H](CCC(N)=O)NC(=O)[C@@H](NC(=O)[C@](C)(Cc1ccccc1)NC(=O)[C@H](CC(=O)O)NC(=O)[C@H](CCCCNC(=O)COCCOCCNC(=O)CC[C@H](NC(=O)CC[C@H](NC(=O)CCCCCCCCCCCCCCCCCCC(=O)O)C(=O)O)C(=O)O)NC(=O)[C@H](C)NC(=O)[C@H](C)NC(=O)[C@H](CCCNC(=N)N)NC(=O)[C@H](CO)NC(=O)[C@H](CC(=O)O)NC(=O)[C@H](CC(C)C)NC(=O)[C@](C)(Cc1ccccc1)NC(=O)[C@H](CCCCN)NC(=O)[C@H](CO)NC(=O)[C@@H](NC(=O)[C@H](CC(=O)O)NC(=O)[C@H](CO)NC(=O)[C@@H](NC(=O)[C@](C)(Cc1ccccc1)NC(=O)[C@H](CO)NC(=O)CNC(=O)[C@H](Cc1c[nH]cn1)NC(=O)C(C)(C)NC(=O)[C@@H](N)Cc1c[nH]cn1)[C@@H](C)O)C(C)C)C(C)C)C(=O)N[C@@H](C)C(=O)N[C@@H](CC(N)=O)C(=O)N[C@H](C(N)=O)[C@@H](C)O` [Peptide 279] (H-H[Aib]HGS[αMeF]TSDVSK[αMeF]LDSRAAK([AEEA-γGlu-γGlu-C20 diacid])D[αMeF]VQ[Aib]IANT-NH2), for which, in test [1], the EC50 stood at 0.15 nM. In test [2], the EC50 was found to be 0.0865 nM and the “% Relative Potency Ratio” value is 3.4.
With `CC[C@H](C)[C@H](NC(=O)C(C)(C)NC(=O)[C@H](CCC(N)=O)NC(=O)[C@@H](NC(=O)[C@](C)(Cc1ccccc1)NC(=O)[C@H](CC(=O)O)NC(=O)[C@H](CCCCNC(=O)COCCOCCNC(=O)COCCOCCNC(=O)CC[C@H](NC(=O)CCCCCCCCCCCCCCCCCCC(=O)O)C(=O)O)NC(=O)[C@H](C)NC(=O)[C@H](C)NC(=O)[C@H](CCCNC(=N)N)NC(=O)[C@H](CO)NC(=O)[C@H](CC(=O)O)NC(=O)[C@H](CC(C)C)NC(=O)[C@](C)(Cc1ccccc1)NC(=O)[C@H](CCCCN)NC(=O)[C@H](CO)NC(=O)[C@@H](NC(=O)[C@H](CC(=O)O)NC(=O)[C@H](CO)NC(=O)[C@@H](NC(=O)[C@](C)(Cc1ccccc1)NC(=O)[C@H](CO)NC(=O)CNC(=O)[C@H](Cc1c[nH]cn1)NC(=O)C(C)(C)NC(=O)[C@@H](N)Cc1c[nH]cn1)[C@@H](C)O)C(C)C)C(C)C)C(=O)N[C@@H](C)C(=O)N[C@@H](CC(N)=O)C(=O)N[C@H](C(N)=O)[C@@H](C)O` [Peptide 280] (H-H[Aib]HGS[αMeF]TSDVSK[αMeF]LDSRAAK([AEEA-AEEA-γGlu-C20 diacid])D[αMeF]VQ[Aib]IANT-NH2), the figures for the EC50 in test [1] and in test [2] were 0.155 nM and 0.0783 nM, respectively. Also, the “% Relative Potency Ratio” value in test [2] stood at 3.9.
With `CC[C@H](C)[C@H](NC(=O)C(C)(C)NC(=O)[C@H](CCC(N)=O)NC(=O)[C@@H](NC(=O)[C@](C)(Cc1ccccc1)NC(=O)[C@H](CC(=O)O)NC(=O)[C@H](CCCCNC(=O)COCCOCCNC(=O)COCCOCCNC(=O)CC[C@H](NC(=O)CC[C@H](NC(=O)CCCCCCCCCCCCCCCCCCC(=O)O)C(=O)O)C(=O)O)NC(=O)[C@H](C)NC(=O)[C@H](C)NC(=O)[C@H](CCCNC(=N)N)NC(=O)[C@H](CO)NC(=O)[C@H](CC(=O)O)NC(=O)[C@H](CC(C)C)NC(=O)[C@](C)(Cc1ccccc1)NC(=O)[C@H](CCCCN)NC(=O)[C@H](CO)NC(=O)[C@@H](NC(=O)[C@H](CC(=O)O)NC(=O)[C@H](CO)NC(=O)[C@@H](NC(=O)[C@](C)(Cc1ccccc1)NC(=O)[C@H](CO)NC(=O)CNC(=O)[C@H](Cc1c[nH]cn1)NC(=O)[C@H](CO)NC(=O)[C@@H](N)Cc1c[nH]cn1)[C@@H](C)O)C(C)C)C(C)C)C(=O)N[C@@H](C)C(=O)N[C@@H](CC(N)=O)C(=O)N[C@H](C(N)=O)[C@@H](C)O` [Peptide 281] (H-HSHGS[αMeF]TSDVSK[αMeF]LDSRAAK([AEEA-AEEA-γGlu-γGlu-C20 diacid])D[αMeF]VQ[Aib]IANT-NH2), the EC50 in test [1] was determined as 1.04 nM. In addition, in test [2], the EC50 was 0.155 nM and the “% Relative Potency Ratio” value was found to be 13.3.
With `CC[C@H](C)[C@H](NC(=O)C(C)(C)NC(=O)[C@H](CCC(N)=O)NC(=O)[C@@H](NC(=O)[C@](C)(Cc1ccccc1)NC(=O)[C@H](CC(=O)O)NC(=O)[C@H](CCCCNC(=O)COCCOCCNC(=O)COCCOCCNC(=O)CC[C@H](NC(=O)CCCCCCCCCCCCCCCCC(=O)O)C(=O)O)NC(=O)[C@H](C)NC(=O)[C@H](C)NC(=O)[C@H](CCCNC(=N)N)NC(=O)[C@H](CO)NC(=O)[C@H](CC(=O)O)NC(=O)[C@H](CC(C)C)NC(=O)[C@](C)(Cc1ccccc1)NC(=O)[C@H](CCCCN)NC(=O)[C@H](CO)NC(=O)[C@@H](NC(=O)[C@H](CC(=O)O)NC(=O)[C@H](CO)NC(=O)[C@@H](NC(=O)[C@](C)(Cc1ccccc1)NC(=O)[C@H](CO)NC(=O)CNC(=O)[C@H](Cc1c[nH]cn1)NC(=O)[C@H](CO)NC(=O)[C@@H](N)Cc1c[nH]cn1)[C@@H](C)O)C(C)C)C(C)C)C(=O)N[C@@H](C)C(=O)N[C@@H](CC(N)=O)C(=O)N[C@H](C(N)=O)[C@@H](C)O` [Peptide 284] (H-HSHGS[αMeF]TSDVSK[αMeF]LDSRAAK([AEEA-AEEA-γGlu-C18 diacid])D[αMeF]VQ[Aib]IANT-NH2), the EC50 in test [1] came to 0.119 nM. For the same compound, in test [2], the EC50 amounted to 0.0434 nM and the “% Relative Potency Ratio” value is recorded as 5.4.
As to `CC[C@H](C)[C@H](NC(=O)C(C)(C)NC(=O)[C@H](CCC(N)=O)NC(=O)[C@@H](NC(=O)[C@](C)(Cc1ccccc1)NC(=O)[C@H](CC(=O)O)NC(=O)[C@H](CCCCNC(=O)COCCOCCNC(=O)COCCOCCNC(=O)CC[C@H](NC(=O)CCCCCCCCCCCCCCCCC(=O)O)C(=O)O)NC(=O)[C@H](C)NC(=O)[C@H](C)NC(=O)[C@H](CCCNC(=N)N)NC(=O)[C@H](CO)NC(=O)[C@H](CC(=O)O)NC(=O)[C@H](CC(C)C)NC(=O)[C@](C)(Cc1ccccc1)NC(=O)[C@H](CCCCN)NC(=O)[C@H](CO)NC(=O)[C@@H](NC(=O)[C@H](CC(=O)O)NC(=O)[C@H](CO)NC(=O)[C@@H](NC(=O)[C@H](Cc1ccccc1)NC(=O)[C@H](CO)NC(=O)CNC(=O)[C@H](Cc1c[nH]cn1)NC(=O)C(C)(C)NC(=O)[C@@H](N)Cc1c[nH]cn1)[C@@H](C)O)C(C)C)C(C)C)C(=O)N[C@@H](C)C(=O)N[C@@H](CC(N)=O)C(=O)N[C@H](C(N)=O)[C@@H](C)O` [Peptide 285] (H-H[Aib]HGSFTSDVSK[αMeF]LDSRAAK([AEEA-AEEA-γGlu-C18 diacid])D[αMeF]VQ[Aib]IANT-NH2), the EC50 in test [1] worked out at 0.087 nM. Besides, in test [2], the 50% effective concentration (EC50) worked out at 0.301 nM and the “% Relative Potency Ratio” value is listed as 0.6.
For `CC[C@H](C)[C@H](NC(=O)C(C)(C)NC(=O)[C@H](CCC(N)=O)NC(=O)[C@@H](NC(=O)[C@](C)(Cc1ccccc1)NC(=O)[C@H](CC(=O)O)NC(=O)[C@H](CCCCNC(=O)COCCOCCNC(=O)COCCOCCNC(=O)CC[C@H](NC(=O)CCCCCCCCCCCCCCCCC(=O)O)C(=O)O)NC(=O)[C@H](C)NC(=O)[C@H](C)NC(=O)[C@H](CCCNC(=N)N)NC(=O)[C@H](CO)NC(=O)[C@H](CC(=O)O)NC(=O)[C@H](CC(C)C)NC(=O)[C@H](Cc1ccc(O)cc1)NC(=O)[C@H](CCCCN)NC(=O)[C@H](CO)NC(=O)[C@@H](NC(=O)[C@H](CC(=O)O)NC(=O)[C@H](CO)NC(=O)[C@@H](NC(=O)[C@](C)(Cc1ccccc1)NC(=O)[C@H](CO)NC(=O)CNC(=O)[C@H](Cc1c[nH]cn1)NC(=O)C(C)(C)NC(=O)[C@@H](N)Cc1c[nH]cn1)[C@@H](C)O)C(C)C)C(C)C)C(=O)N[C@@H](C)C(=O)N[C@@H](CC(N)=O)C(=O)N[C@H](C(N)=O)[C@@H](C)O` [Peptide 286] (H-H[Aib]HGS[αMeF]TSDVSKYLDSRAAK([AEEA-AEEA-γGlu-C18 diacid])D[αMeF]VQ[Aib]IANT-NH2; N-terminus assumed), the EC50 in test [1] came to 0.053 nM; in test [2], 0.0316 nM. The “% Relative Potency Ratio” value in test [2] was 3.3.

For orientation: EC50 means the concentration at which the effect is half-maximal.
